Earlier results on one molecule are cited in patent US20090291465A1, “Screening Method for Identifying New Drugs” (FUNDACIÓ PRIVADA PARC CIENTÍFIC DE BARCELONA, priority 2006, published 2009).

Each structure is given as a SMILES string.

For series [1] the following is noted: limits its use to topical applications.
In series [2] the test system is isoleucyl-tRNA synthetases (IIeRS).

Turning to `C/C(=C\C(=O)OCCCCCCCCC(=O)O)C[C@@H]1OC[C@H](C[C@@H]2O[C@H]2[C@@H](C)[C@H](C)O)[C@@H](O)[C@H]1O` [Pseudomonic acid], the systemic bioavailability entry in series [1] is on record as “lack of systemic bioavailability”. In series [2], the “selectivity for pathogen vs. mammalian IIeRS” value is given as approximately 8000 fold.
